Laboratory results from article PMC7248707 (Molecules, 2020).

Columns and labels:
[1] = system: MOR; details: read-out: IC50 in the GPI bioassay; cited from earlier work
[2] = molecular target: T1, human MOR (Homo sapiens, UniProt P35372)
[3] = cited from earlier work
[4] = molecular target: T1, human MOR; remark: listed apart in the source
[5] = molecular target: rat MOR; set-up: method as in PMID 2537427; details: rat brain tissue; cited from earlier work

T1 sequence (P35372 whole entry): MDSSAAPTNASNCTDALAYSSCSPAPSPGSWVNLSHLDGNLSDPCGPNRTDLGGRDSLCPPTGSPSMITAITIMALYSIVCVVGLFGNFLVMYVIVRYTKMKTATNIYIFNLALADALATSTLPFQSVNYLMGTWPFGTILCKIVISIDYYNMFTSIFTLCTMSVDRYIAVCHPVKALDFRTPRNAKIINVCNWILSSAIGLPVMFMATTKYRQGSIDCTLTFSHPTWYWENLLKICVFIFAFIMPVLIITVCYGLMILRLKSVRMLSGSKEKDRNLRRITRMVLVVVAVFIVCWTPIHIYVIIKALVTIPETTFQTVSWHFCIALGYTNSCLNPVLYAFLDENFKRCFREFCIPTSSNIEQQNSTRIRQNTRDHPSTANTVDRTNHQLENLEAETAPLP

SMILES	IC50 [1] [nM]	better MOR affinity than DAMGO ([2]; relative to DAMGO) [fold]	increase in MOR affinity versus [Dmt^1]DALDA ([2]; relative to [Dmt^1]DALDA)	BBB crossing / CNS entry [3]	enhanced MOR agonist potency versus [Dmt^1]DALDA [4] [fold]	EC50 ([4]; read-out: Agonist Activity EC50) [nM]	Ki [5] [nM]
Cc1cc(O)cc(C)c1C[C@H](N)C(=O)N[C@H](CCCNC(=N)N)C(=O)N[C@H]1Cc2ccccc2CN(CCC(N)=O)C1=O [KGOP01]	0.8	13	ca. 2 fold	can enter the CNS	5	0.1 ± 0.02	
NCCCC[C@H](NC(=O)[C@H](Cc1ccccc1)NC(=O)[C@@H](CCCN=C(N)N)NC(=O)[C@@H](N)Cc1ccc(O)cc1)C(N)=O [DALDA, H-Tyr-D-Arg-Phe-Lys-NH2]				does not cross the BBB			1.69
